The term inhibition denotes the share of the control response that was lost under treatment. The IC50 is the concentration needed to halve the response being measured. Lower therefore signals greater potency.

For 17 compounds, inhibition, IC50 and Activity results are on record in ChEMBL document CHEMBL1149348, “Tubulin polymerization inhibitors with a fluorinated phthalimide skeleton derived from thalidomide” (Bioorg Med Chem Lett, 2006).

Assay [1] deals with T1, Tubulin (Sus scrofa) (UniProt P02554+P02550). Description: Inhibition of tubulin polymerization in porcine brain at 20 uM.
For another assay, the target named is Tubulin (Sus scrofa, UniProt P02554+P02550). Description: Inhibition of tubulin polymerization in porcine brain.
Assay [2] deals with T1, Tubulin (Sus scrofa). Description: Inhibition of tubulin depolymerization in porcine brain at 10 uM.

Active and inactive are the calls of the source. The rule behind the calls is not given here.

T1 sequence (P02550 whole entry, looked up): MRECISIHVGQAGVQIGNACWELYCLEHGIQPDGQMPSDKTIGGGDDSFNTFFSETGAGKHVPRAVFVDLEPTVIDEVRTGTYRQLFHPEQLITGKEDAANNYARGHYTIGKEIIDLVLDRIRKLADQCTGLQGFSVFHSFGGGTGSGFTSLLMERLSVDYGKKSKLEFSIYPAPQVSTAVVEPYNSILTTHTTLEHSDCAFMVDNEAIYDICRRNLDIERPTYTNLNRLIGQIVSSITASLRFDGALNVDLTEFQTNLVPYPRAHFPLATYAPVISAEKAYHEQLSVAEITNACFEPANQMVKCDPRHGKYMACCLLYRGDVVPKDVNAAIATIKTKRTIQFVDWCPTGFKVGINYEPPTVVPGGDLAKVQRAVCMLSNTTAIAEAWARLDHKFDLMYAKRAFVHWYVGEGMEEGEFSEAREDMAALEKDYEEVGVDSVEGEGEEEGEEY
T1 sequence (P02554 whole entry, looked up): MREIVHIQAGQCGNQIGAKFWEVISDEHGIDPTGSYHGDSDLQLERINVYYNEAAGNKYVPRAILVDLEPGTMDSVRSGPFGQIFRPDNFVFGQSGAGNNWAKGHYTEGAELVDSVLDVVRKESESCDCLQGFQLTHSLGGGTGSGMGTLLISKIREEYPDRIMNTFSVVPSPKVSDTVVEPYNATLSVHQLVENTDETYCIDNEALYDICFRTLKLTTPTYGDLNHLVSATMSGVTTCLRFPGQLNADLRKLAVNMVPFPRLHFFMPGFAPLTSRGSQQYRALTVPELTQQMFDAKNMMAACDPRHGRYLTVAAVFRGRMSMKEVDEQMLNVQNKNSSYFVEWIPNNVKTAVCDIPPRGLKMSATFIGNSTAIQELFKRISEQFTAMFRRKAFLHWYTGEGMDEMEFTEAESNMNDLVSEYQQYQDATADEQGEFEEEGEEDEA

The compound `CCc1cccc(CC)c1N1C(=O)c2c(F)c(F)c(F)c(F)c2C1=O` gave an inhibition against Tubulin (Sus scrofa) [1] of 18%. In turn, `CC(C)c1cccc(C(C)C)c1N1C(=O)c2ccc(O)cc2C1=O` registered an IC50 on Tubulin of 6.9 µM. On Tubulin (Sus scrofa) [1], `CC(C)c1cccc(C(C)C)c1N1C(=O)c2ccc(F)cc2C1=O` displayed an inhibition of 9%. On to `O=C1c2c(Cl)c(Cl)c(Cl)c(Cl)c2C(=O)N1c1ccccc1`, for which the inhibition against Tubulin (Sus scrofa) [1] was determined as 6%.

Regarding `CC(C)c1cccc(C(C)C)c1N1C(=O)c2cccc(F)c2C1=O`, at Tubulin, the IC50 amounted to 17 µM. The inhibition against Tubulin (Sus scrofa) [1] was determined as 73%. At Tubulin (Sus scrofa) [1], `Cc1cccc(C)c1N1C(=O)c2c(F)c(F)c(F)c(F)c2C1=O` showed an inhibition of 10%. Take `CCCc1cccc(CCC)c1N1C(=O)c2c(Cl)c(Cl)c(Cl)c(Cl)c2C1=O`: the inhibition at Tubulin (Sus scrofa) [1] came to 0%. Same read-out and setting: in the case of `CC(C)c1cccc(C(C)C)c1N1C(=O)c2ccccc2C1=O` it was 3%; in that of `Cc1cccc(C)c1N1C(=O)c2c(Cl)c(Cl)c(Cl)c(Cl)c2C1=O`, 0%. The compound `CC(C)c1cccc(C(C)C)c1N1C(=O)c2cc(F)c(F)cc2C1=O` had an inhibition against Tubulin (Sus scrofa) [1] of 8%. For the compound `CC(C)c1cccc(C(C)C)c1N1C(=O)c2c(F)c(F)c(F)c(F)c2C1=O`, the IC50 against Tubulin turned out to be 16 µM. The inhibition at Tubulin (Sus scrofa) [1] was found to be 71%.

Regarding `CC(C)c1cccc(C(C)C)c1N1C(=O)c2c(F)ccc(F)c2C1=O`, the outcome at Tubulin (Sus scrofa) [2] was inactive. Further, the IC50 against Tubulin was found to be 7.8 µM. Moreover, on Tubulin (Sus scrofa) [1], the inhibition came out at 78%.

`CC(C)c1ccccc1N1C(=O)c2c(F)c(F)c(F)c(F)c2C1=O` gave an inhibition against Tubulin (Sus scrofa) [1] of 10%.

`CC(C)c1ccc([N+](=O)[O-])c(C(C)C)c1N1C(=O)c2c(F)c(F)c(F)c(F)c2C1=O` gave an inhibition on Tubulin (Sus scrofa) [1] of 10%. `CC(C)c1cc(Br)cc(C(C)C)c1N1C(=O)c2c(F)c(F)c(F)c(F)c2C1=O` displayed an inhibition against Tubulin (Sus scrofa) [1] of 11%.

`O=C1c2c(F)c(F)c(F)c(F)c2C(=O)N1c1ccccc1`: the inhibition on Tubulin (Sus scrofa) [1] worked out at 7%.

Take `CO[C@@H](/C(C)=C/C=C/C(C)=C/c1coc(C)n1)[C@@H](C)[C@@H]1C[C@H](O)[C@@]2(C)O[C@@H]2/C=C/[C@@H](C)[C@H]2C[C@H](CC(=O)O2)C[C@@H]2O[C@H]2C(=O)O1`: the inhibition against Tubulin (Sus scrofa) [1] turned out to be 81%.
